For one molecule, effect on tumors, tumor growth inhibition and IC50 results are on record in patent US20080004273A1, “Inhibitors of protein tyrosine kinase activity” (priority 2006, published 2008).

SMILES strings stand for the structures.

The subject of one experiment is MNNGHOS tumor xenograft. Briefly: In vivo solid tumor disease model, MNNGHOS tumor xenograft. The following applies: MNNGHOS xenograft in mice, dosed orally at 40 mg/kg in PEG 400/0.1 N HCl in saline (40:60). The source says:
In Vivo Solid Tumor Disease Model
This test measures the capacity of compounds to inhibit solid tumor growth.
Tumor xenografts are established in the flank of female athymic CDl mice (Charles River Inc.), by subcutaneous injection of 1X10^6 cells/mouse. Once established, tumors are then serially passaged s.c. in nude mice hosts. Tumor fragments from these host animals are used in subsequent compound evaluation experiments. For compound evaluation experiments female nude mice weighing approximately 20 g are implanted s.c. by surgical implantation with tumor fragments of 30 mg from donor tumors. When the tumors are approximately 100 mm^3 in size (˜7-10 days following implantation), the animals are randomized and separated into treatment and control groups. Each group contains 6-8 tumor-bearing mice, each of which is ear-tagged and followed individually throughout the experiment.
Mice are weighed and tumor measurements are taken by calipers three times weekly, starting on Day 1. These tumor measurements are converted to tumor volume by the well-known formula […]. The experiment is terminated when the control tumors reach a size of approximately 1500 mm^3. […] In addition to tumor volumes, body weight of animals is monitored twice weekly for up to 3 weeks. […]

In a further experiment the test system is DU145. Briefly: DU145 scattering inhibition. The following applies: Homo sapiens, DU-145, read-out: Potency in cell-based assays DU145 scattering inhibition.

With `COc1cc2nccc(Oc3ccc(NC(=O)N4CCN(c5ccccc5)C4=O)cc3F)c2cc1OC` [Example 2, N-(4-(6,7-Dimethoxyquinolin-4-yloxy)-3-fluorophenyl)-2-oxo-3-phenylimidazolidine-1-carboxamide], in the experiment on MNNGHOS tumor xenograft, the effect on tumors result was “full regression of the tumors” and the tumor growth inhibition amounted to 112%. The IC50 with DU145 stood at 400 nM.
